In paper PMC5951806, “Rapid labelling and covalent inhibition of intracellular native proteins using ligand-directed N-acyl-N-alkyl sulfonamide” (Nature Communications, 2018):

What was measured:
[1] = biological target: T1, Isoform 2 of Fructose-bisphosphate aldolase A (ALDOA) (Homo sapiens, UniProt P04075); test: TMT LC-MSMS of 11-labelled proteins; assay type: cell-based
T1 sequence (P04075 2-364 limits assumed): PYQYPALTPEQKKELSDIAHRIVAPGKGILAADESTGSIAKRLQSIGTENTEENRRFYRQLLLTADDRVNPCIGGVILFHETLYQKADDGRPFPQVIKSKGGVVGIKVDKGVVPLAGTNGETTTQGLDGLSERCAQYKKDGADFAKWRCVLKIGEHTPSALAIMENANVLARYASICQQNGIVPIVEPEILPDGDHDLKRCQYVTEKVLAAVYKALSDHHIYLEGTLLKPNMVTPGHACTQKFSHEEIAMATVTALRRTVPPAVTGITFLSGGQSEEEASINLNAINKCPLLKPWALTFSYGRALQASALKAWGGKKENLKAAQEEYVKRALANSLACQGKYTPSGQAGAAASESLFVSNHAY

[2] = biological target: T2, Isoform 3 of Very long-chain specific acyl-CoA dehydrogenase, mitochondrial (ACADVL) (Homo sapiens, UniProt P49748); test: TMT LC-MSMS of 11-labelled proteins; assay type: cell-based
T2 sequence (P49748 64-678 isoform P49748-3): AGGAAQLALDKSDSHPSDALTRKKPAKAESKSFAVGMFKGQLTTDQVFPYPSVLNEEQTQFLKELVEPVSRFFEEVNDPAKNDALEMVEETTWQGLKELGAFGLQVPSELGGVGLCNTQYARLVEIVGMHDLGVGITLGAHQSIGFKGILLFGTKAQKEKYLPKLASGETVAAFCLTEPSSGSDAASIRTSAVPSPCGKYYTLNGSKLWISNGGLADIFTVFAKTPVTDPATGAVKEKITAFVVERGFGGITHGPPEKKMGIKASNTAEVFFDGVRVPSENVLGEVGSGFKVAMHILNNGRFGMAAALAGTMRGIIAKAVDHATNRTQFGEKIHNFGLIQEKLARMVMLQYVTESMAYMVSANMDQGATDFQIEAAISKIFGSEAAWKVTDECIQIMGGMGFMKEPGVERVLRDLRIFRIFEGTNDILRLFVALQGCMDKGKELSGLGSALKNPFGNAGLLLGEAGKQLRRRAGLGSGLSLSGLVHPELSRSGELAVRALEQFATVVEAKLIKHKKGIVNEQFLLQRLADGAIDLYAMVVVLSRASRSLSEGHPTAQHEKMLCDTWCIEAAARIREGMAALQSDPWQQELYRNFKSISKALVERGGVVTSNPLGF

[3] = sheet Exp1, SKBR3 cells, 11 0.5 µM 3 h vs DMSO
[4] = sheet Exp1, SKBR3 cells, 11 0.5 µM 3 h vs with PU-H71 10 µM
[5] = sheet Merged, SKBR3 cells, 11 0.5 µM 3 h vs DMSO
[6] = sheet Merged, SKBR3 cells, 11 0.5 µM 3 h vs with PU-H71 10 µM

- Abundance Ratio: (11) / (11 with PU-H71) ([1]; Exp3, ALDOA): 0.706
- Abundance Ratio: (11) / (DMSO) ([1]; Exp3, ALDOA): 3.817
- Abundances (Grouped): 11 ([1]; Exp3, ALDOA): 494.7
- Abundances (Grouped): 11 with PU-H71 ([1]; Exp3, ALDOA): 700.9
- Abundance Ratio: (11) / (DMSO) [1, 3]: 4.85
- Abundance Ratio: (11) / (11 with PU-H71) [1, 4]: 0.675
- Abundance Ratio: (11) / (11 with PU-H71) ([1]; sheet Exp2, ALDOA): 0.724
- Abundance Ratio: (11) / (DMSO) ([1]; sheet Exp2, ALDOA): 4.699
- Abundances (Grouped): 11 ([1]; sheet Exp2, ALDOA): 363.2
- Abundances (Grouped): 11 with PU-H71 ([1]; sheet Exp2, ALDOA): 502
- Abundance Ratio: (11) / (DMSO) [1, 5]: 4.85
- Abundance Ratio: (11) / (11 with PU-H71) [1, 6]: 0.675
- Abundance Ratio: (11) / (11 with PU-H71) ([2]; Exp3, ACADVL): 0.845
- Abundance Ratio: (11) / (DMSO) ([2]; Exp3, ACADVL): 5.056
- Abundances (Grouped): 11 ([2]; Exp3, ACADVL): 1747
- Abundances (Grouped): 11 with PU-H71 ([2]; Exp3, ACADVL): 2067.1
- Abundance Ratio: (11) / (DMSO) [2, 3]: 5.466
- Abundance Ratio: (11) / (11 with PU-H71) [2, 4]: 0.816
- Abundance Ratio: (11) / (11 with PU-H71) ([2]; sheet Exp2, ACADVL): 0.826
- Abundance Ratio: (11) / (DMSO) ([2]; sheet Exp2, ACADVL): 4.735
- Abundances (Grouped): 11 ([2]; sheet Exp2, ACADVL): 1334.4
- Abundances (Grouped): 11 with PU-H71 ([2]; sheet Exp2, ACADVL): 1615.2
- Abundance Ratio: (11) / (DMSO) [2, 5]: 4.735
- Abundance Ratio: (11) / (11 with PU-H71) [2, 6]: 0.826
Structure (SMILES): CC(=O)Oc1ccc2c(c1)Oc1cc(OC(C)=O)ccc1C21OC(=O)c2cc(C(=O)NCCOCCOCCNC(=O)CCCC(=O)N(CC#N)S(=O)(=O)c3ccc(C(=O)NCCCn4c(Sc5cc6c(cc5I)OCO6)nc5c(N)ncnc54)cc3)ccc21 [compound 11]
